Assay results from patent publication US10080779B2, “Method for increasing the expression of anti-microbial peptides by keratinocytes comprising administering a composition comprising IL-17, TNF-alpha and OSM” (Universite D'Angers, priority 2004, dated 2018).

How the values were obtained:
NHEK [1] = assay: In vitro keratinocyte migration assay; assay type: cell-based, human; conditions: mitomycin-treated wounded NHEK; OSM 10 ng/ml, IL-31 100 ng/ml
Description: Keratinocytes were cultured in wells pre-coated with type I collagen (200 μg/ml, Institut Jacques Boy, Reims, France) until they reached 80% confluency. Cells were starved for 48 h in Keratinocyte SFM and then treated with 10 μg/ml of mitomycin C (Sigma) for 2 h to prevent cell proliferation. A cell-free area was created by scraping the keratinocyte monolayer with a plastic pipette tip. Keratinocytes migration to the cell-free area was evaluated after 48 h of culture in the absence or presence of EGF or OSM. Using an inverted phase contrast microscope. The number of migrating keratinocytes was counted in 4 non-overlapping fields. Values represent the mean±SEM of cells per mm^2 beyond the frontiers of the in vitro injury. Student's t test was used for statistical analysis.

NHEK [2] = assay: Gene expression profiling of NHEK using cDNA macroarrays; assay type: cell-based, human; conditions: 10 ng/ml OSM 24 h
Description: (§1) Total RNA was isolated as described for PCR studies. DNase treatment, polyA^+ RNA enrichment, ^33P-labelled cDNA probe synthesis, purification and hybridization to custom Atlas array membranes (Bernard, Pedretti et al. 2002) were performed according to Clontech's recommendations (Clontech, Palo Alto, USA). Membranes were exposed for 5 days to a Molecular Dynamics Storm storage screen and scanned using a phosphorimager scanner (Molecular Dynamics Storm analyser, Amersham Biosciences, Uppsala, Sweden). After local background substraction, average signal intensity from duplicate spots was normalized for differences in probe labelling using the values obtained for housekeeping genes (Bernard et al., 2002). For each gene, the OSM-induced modulation was expressed as the relative expression value for stimulated versus control sample. Arbitrarily, only modulation above 2 was considered significant for confirmation using RT-real time PCR assay.

[3] = test system: reconstituted human epidermis (RHE); assay: Gene expression profiling of RHE using cDNA macroarrays; assay type: cell-based; conditions: 10 ng/ml OSM 24 h
Description: as §1
For gene expression profiling using cDNA macroarrays, 17 days old RHE were grown for 1 day in SkinEthic maintenance medium prior to stimulation in the absence or presence of OSM for 24 h. Total RNA was isolated and cDNA arrays were performed as described above.

NHEK [4] = assay: RT-real time PCR of S100 mRNA in cytokine-stimulated NHEK; assay type: cell-based, human
Description: (§2) Quantitative real time PCR was carried out using the LightCycler-FastStart DNA Master^PLUS SYBR Green I kit (Roche, Mannheim, Germany). The reaction components were 1× FastStart DNA Master^PLUS SYBR Green I and 0.5 μM of forward and reverse primers for S100A7 (forward 5′-[…]-3′ (SEQ ID No: 9) and reverse 5′-[…]-3′ (SEQ ID No: 10)), S100A8 (Pattyn, Speleman et al. 2003), S100A9 (forward 5′-[…]-3′ (SEQ ID No: 11) and reverse 5′-[…]-3′ (SEQ ID No: 12)), hBD2/4 (forward 5′-[…]-3′ (SEQ ID No: 13) and reverse 5′-[…]-3′ (SEQ ID No: 14)), KRT10 (forward 5′-[…]-3′ (SEQ ID No: 15) and reverse 5′-[…]-3′ (SEQ ID No: 16)), and hydroxymethyl-bilane synthase (HMBS) as a housekeeping gene (Vandesompele, De Preter et al. 2002). After cDNA fluorescent quantification using propidium iodide, 250 ng, 25 ng and 2.5 ng of cDNA were added as PCR template in the LightCycler glass capillaries. The cycling conditions comprised a 10 min polymerase activation at 95° C. and 50 cycles at 95° C. for 10 s, 64° C. for 5 s and 72° C. for 18 s with a single fluorescence measurement. […] A mathematical model was used to determine the relative quantification of target genes compared to HMBS reference gene (Pfaffl 2001).

NHEK [5] = assay: Chemokine production by NHEK (ELISA), OSM; assay type: cell-based, human; conditions: 48 h NHEK under OSM stimulation
Description: IL-1beta, IL-6, IL-8, IL-10, IL-12p70, TNF alpha, ENA-78, MIP 3 beta were measured by specific ELISA in 48 h NHEK culture supernatants. Cells were cultured in the presence or not of OSM. Dose-response (0.4 to 25 ng/ml) and kinetic (6 to 96 h) studies of ENA78 production were also performed.

[6] = test system: normal human keratinocytes (NHEK); assay: Cytokine cocktails on S100A7, hBD2/4, KRT10 mRNA in NHEK (RT-Q-PCR); assay type: cell-based; conditions: NHEK 24 hrs, 1 ng/ml each
Description: as §2
To that aim, confluent normal human keratinocytes (NHEK) were treated for 24 hrs with the indicated mix of cytokines (each cytokine at 1 ng/ml final concentration). Total RNA was extracted, reverse-transcribed and the expression of the selected genes was analyzed by real-time PCR as described.

NHEK [7] = assay: cDNA macroarrays analysis of 36 cytokines on 154 genes in NHEK; assay type: cell-based, human; conditions: 10 ng/ml, 24 h
Description: The comparison of the effects of 36 different cytokines on the expression of 154 genes of potential interest for skin physiology was performed using home-made cDNA macroarrays analysis. After cytokine stimulation, total RNA was extracted using TRIzoI® Reagent (Invitrogen life Technologies) and conventional 33P-cDNA target synthesis and hybridization were performed (Boniface et al, 2007). Genes were considered regulated if expression levels differed more than 3-fold relative to untreated control and 3-fold relative to mean background noise.

NHEK [8] = assay: RT-QPCR of antimicrobial peptide and chemokine genes in NHEK; assay type: cell-based, human; conditions: 10 ng/ml, 24 h
Description: NHEK were obtained as previously described, from surgical samples of healthy breast skin (Boniface et al, 2005). NHEK were cultured to 80% of confluence and then starved for 24 h in Keratinocyte SFM without addition of growth factors before stimulation. Cells were stimulated with or without 10 ng/ml of recombinant IL-17A, OSM, TNFα, IL-22 and IL-1α alone or in combination (R&D systems Europe, Lille, France) during 24 h for mRNA quantification or 48 h to 96 h for protein quantification.
NHEK and skin total RNA were isolated and reverse-transcribed as previously described (Boniface et al, 2005). Quantitative real time PCR was carried using the LightCycler-FastStart DNA Master SYBR® Green I kit on LightCycler 480 (Roche Diagnostics, Meylan, France). The reaction components were 1×DNA Master Mix, and 0.5 μM of HPLC purified sense and anti-sense oligonucleotides purchased from Eurogentec (Eurogentec France, Angers, France), designed using Primer3 software. Samples were normalized to three independent control housekeeping genes (G3PDH, RPL13A or ACTB for human samples and G3PDH, HMBS or B2m for mouse samples) and reported according to the ΔΔCT method as RNA fold increase: 2^ΔΔCT=2^ΔCT sample−ΔCT eference. For comparison of normal skin and psoriatic skin the REST 2008 software was used (Pfaffl et al., 2002).

OSM: human recombinant oncostatin M, cytokine of the IL-6 family
Keratinocyte migration to the cell-free area (NHEK [1]): important migration of NHEK, similar to that observed in the presence of EGF
Expression of CXCL1, CXCL5, CXCL8 and PDGF-A genes (NHEK [2]): increased the expression
Expression of calcium binding proteins S100A7, S100A8, S100A9, S100 neutrophil protein (NHEK [2]): marked increase
Expression of genes associated with keratinocyte differentiation (CK1, CK10, fillagrin, loricrin) (NHEK [2]): down regulates
Number of genes with decreased expression (NHEK [2]; array of 586 cDNAs): 38 genes
Number of genes with increased expression (NHEK [2]; array of 586 cDNAs): 36 genes
S100A7, S100A8, S100A9 and S100 neutrophil protein gene expression [3]: strongly up-regulated
Time at which S100A7 mRNA increase starts (NHEK [4]; 10 ng/ml OSM): 12 h
psoriasin/S100A7 mRNA induction above the control value (NHEK [4]; 10 ng/ml OSM, 96 h): about 290 folds
OSM concentration at which plateau of S100A7 mRNA is reached (NHEK [4]; 48-h treatment): 6.3 ng/mL
psoriasin/S100A7 mRNA increase above control at plateau (NHEK [4]; 48-h treatment, 6.3 ng/ml OSM): fifty fold increase
Production of chemokines CXCL5 and CXCL8 (NHEK [5]): clearly enhanced
Decrease of the activity of the 5 cytokines reference mix on omission of the cytokine, S100A7 [6]: 3 fold
Decrease of the activity of the 5 cytokines reference mix on omission of the cytokine, hBD2/4 [6]: 2.5 fold
Number of genes (of 154) whose expression is modified with at least a three fold increase or decrease (NHEK [7]): at least five genes
Number of the 21 chemokine and antimicrobial peptide genes upregulated (NHEK [8]): 13
